Results as given in patent US20200368190A1, “METHODS OF TREATMENT” (Arena Pharmaceuticals, Inc., priority 2017, published 2020).

Legend:
[1] = Clinical Trial 1: 22-week randomized, double-blind, placebo-controlled study with dose titration; format: in vivo
Description: A 22-week randomized, double-blind, placebo-controlled study with a dose titration period of up to 9 weeks was conducted. Sixty-one individuals were randomized 2:1 Compound 1 to placebo. Right Heart Catheterization (RHC) measurements were obtained prior to study Day 1 of the dose titration period and at Week 22. The following values were obtained and recorded: pulmonary artery pressure (PAP) (systolic, diastolic, and mean), heart rate (HR), right atrial pressure (RAP), pulmonary capillary wedge pressure (PCWP) right ventricular pressure (RVP) and cardiac output (CO), pulmonary vascular resistance (PVR), arterial and mixed venous oxygen saturation […] (if applicable). Systemic vascular resistance (SVR) was estimated from blood pressure measurements.
Primary efficacy endpoints for the study were: a) change from baseline in PVR after 22 weeks of treatment, and b) change from baseline in 6 MWD after 22 weeks of treatment. Compound 1 was administered as a capsule in 0.01, 0.02, 0.03, 0.04, and 0.10 mg dose strengths. The starting dose of Compound 1 was 0.01 mg twice daily. The dose of Compound 1 was titrated according to individual tolerability. If the initial dose was tolerated (0.01 mg twice daily), then the dose was increased once a week in the following fashion: 0.02 mg twice daily, 0.03 mg twice daily, 0.04 mg twice daily, 0.06 mg twice daily, 0.08 mg, 0.1 mg twice daily, 0.2 mg twice daily and 0.3 mg twice daily. The dose was optionally escalated to a possible maximum total daily dose of 0.6 mg (0.3 mg twice daily), pending tolerability.

[2] = Clinical Trial 2: randomized, double-blind, placebo-controlled study in individuals with severe Raynaud's; format: in vivo; settings: titration scheme
Description: A randomized, double-blind, placebo-controlled study is conducted in individuals with severe Raynaud's. Individuals are administered Compound 1 using a titration scheme. Compound 1 is determined to be efficacious for the treatment and/or prevention of Raynaud's.

[3] = intravenous; cited from earlier work
[4] = intravenous, over 9 weeks, cited from earlier work
[5] = oral, titrated to the highest tolerated dose; individuals with systemic sclerosis; cited from earlier work
[6] = after 22 weeks of treatment, capsule, titrated from 0.01 mg twice daily up to 0.3 mg twice daily

O=C(O)COC[C@H]1CC[C@H](COC(=O)N(c2ccccc2)c2ccc(Cl)cc2)CC1 [Compound 1, 2-(((1r,4r)-4-(((4-chlorophenyl)(phenyl)carbamoyloxy)methyl)cyclohexyl)methoxy)acetic acid]
adverse events observed in the study ([1]; 22-week study, titrated up to 0.6 mg total daily dose): consistent with other prostacyclin treatments for the management of PAH
6-minute walk distance (6MWD) [1, 6]: numerical improvement
change from baseline in pulmonary vascular resistance (PVR) compared to placebo (primary endpoint) [1, 6]: statistically significant change from baseline
efficacy for the treatment and/or prevention of Raynaud's [2]: efficacious

CCCCC[C@H](O)/C=C/[C@@H]1[C@H]2C/C(=C/CCCC(=O)O)O[C@H]2C[C@H]1O [epoprostenol]
frequency and duration of Raynaud phenomenon attacks [3]: reduced frequency and duration
loss in clinical response, time after the last infusion [3]: 8-10 weeks

CC#CCC(C)[C@H](O)/C=C/[C@@H]1[C@H]2C/C(=C/CCCC(=O)O)C[C@H]2C[C@H]1O (stereo partly drawn) [iloprost]
improve severity score ([4]; vs. 19.7% comparator): 34.8%
reduce weekly Raynaud phenomenon attacks ([4]; vs. 22.2% comparator): 39.1%

CC(C)N(CCCCOCC(=O)NS(C)(=O)=O)c1cnc(-c2ccccc2)c(-c2ccccc2)n1 [selexipag]
primary efficacy endpoint: reduction in the number of Raynaud's phenomenon attacks per week versus placebo [5]: did not meet the primary efficacy endpoint
